Reference: ChEMBL document CHEMBL1133759, “6beta-Acyloxy(nor)tropanes: affinities for antagonist/agonist binding sites on transfected and native muscarinic receptors” (J Med Chem, 2000)

Key:
[1] = molecular target: Muscarinic acetylcholine receptor; type: cell membranes, Rattus norvegicus, Membrane
[2] = molecular target: T1, Muscarinic acetylcholine receptor M4 (Homo sapiens, UniProt P08173); type: cell membranes, CHO
T1 sequence (P08173 whole entry): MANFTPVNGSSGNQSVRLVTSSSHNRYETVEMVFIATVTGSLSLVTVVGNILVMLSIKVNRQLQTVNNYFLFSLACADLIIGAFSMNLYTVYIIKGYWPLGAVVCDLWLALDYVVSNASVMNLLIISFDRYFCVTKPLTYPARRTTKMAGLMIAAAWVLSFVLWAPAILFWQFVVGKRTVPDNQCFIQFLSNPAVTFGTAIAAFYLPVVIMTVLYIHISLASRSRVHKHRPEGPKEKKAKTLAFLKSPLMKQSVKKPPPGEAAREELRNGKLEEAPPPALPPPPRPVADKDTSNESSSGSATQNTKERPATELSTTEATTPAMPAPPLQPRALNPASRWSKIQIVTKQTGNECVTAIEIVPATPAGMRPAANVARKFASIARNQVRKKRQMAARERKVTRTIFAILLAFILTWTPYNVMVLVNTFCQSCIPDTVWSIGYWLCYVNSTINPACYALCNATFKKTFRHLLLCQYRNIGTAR

[3] = molecular target: T2, Muscarinic acetylcholine receptor M2 (Homo sapiens, UniProt P08172); type: cell membranes, CHO
T2 sequence (P08172 whole entry): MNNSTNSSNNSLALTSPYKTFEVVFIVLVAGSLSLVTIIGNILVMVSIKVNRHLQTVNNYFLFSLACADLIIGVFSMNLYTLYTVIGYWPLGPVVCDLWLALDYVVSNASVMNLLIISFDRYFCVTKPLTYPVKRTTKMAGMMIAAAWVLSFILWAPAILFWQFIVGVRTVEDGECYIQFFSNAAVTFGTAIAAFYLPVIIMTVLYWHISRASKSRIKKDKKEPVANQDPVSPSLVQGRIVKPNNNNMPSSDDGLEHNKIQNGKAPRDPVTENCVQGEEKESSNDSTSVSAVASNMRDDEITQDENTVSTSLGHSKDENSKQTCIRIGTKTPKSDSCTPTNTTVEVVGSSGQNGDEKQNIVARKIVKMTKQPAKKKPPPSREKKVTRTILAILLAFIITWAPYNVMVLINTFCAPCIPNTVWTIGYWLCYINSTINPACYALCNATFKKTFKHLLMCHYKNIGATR

[4] = molecular target: T3, Muscarinic acetylcholine receptor M1 (Homo sapiens, UniProt P11229); assay: The binding affinity was measured as inhibition of binding of [3H]- quinuclidinyl benzilate to Muscarinic acetylcholine receptor M1 in membranes of CHO cells; type: cell membranes
T3 sequence (P11229 whole entry): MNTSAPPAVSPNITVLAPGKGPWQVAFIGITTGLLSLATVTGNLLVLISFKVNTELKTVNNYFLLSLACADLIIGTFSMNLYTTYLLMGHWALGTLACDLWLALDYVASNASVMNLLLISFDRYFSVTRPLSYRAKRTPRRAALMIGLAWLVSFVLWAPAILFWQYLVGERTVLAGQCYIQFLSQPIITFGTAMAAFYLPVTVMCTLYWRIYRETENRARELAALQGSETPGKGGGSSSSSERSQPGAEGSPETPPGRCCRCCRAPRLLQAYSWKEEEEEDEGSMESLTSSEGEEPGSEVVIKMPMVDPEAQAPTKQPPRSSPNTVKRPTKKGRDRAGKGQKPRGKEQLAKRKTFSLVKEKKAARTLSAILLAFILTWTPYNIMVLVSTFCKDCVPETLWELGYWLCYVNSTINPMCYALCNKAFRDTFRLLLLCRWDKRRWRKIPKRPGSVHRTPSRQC

[5] = molecular target: T4, Muscarinic acetylcholine receptor M3 (Homo sapiens, UniProt P20309); type: cell membranes, CHO
Target sequence in this assay (P20309 whole entry): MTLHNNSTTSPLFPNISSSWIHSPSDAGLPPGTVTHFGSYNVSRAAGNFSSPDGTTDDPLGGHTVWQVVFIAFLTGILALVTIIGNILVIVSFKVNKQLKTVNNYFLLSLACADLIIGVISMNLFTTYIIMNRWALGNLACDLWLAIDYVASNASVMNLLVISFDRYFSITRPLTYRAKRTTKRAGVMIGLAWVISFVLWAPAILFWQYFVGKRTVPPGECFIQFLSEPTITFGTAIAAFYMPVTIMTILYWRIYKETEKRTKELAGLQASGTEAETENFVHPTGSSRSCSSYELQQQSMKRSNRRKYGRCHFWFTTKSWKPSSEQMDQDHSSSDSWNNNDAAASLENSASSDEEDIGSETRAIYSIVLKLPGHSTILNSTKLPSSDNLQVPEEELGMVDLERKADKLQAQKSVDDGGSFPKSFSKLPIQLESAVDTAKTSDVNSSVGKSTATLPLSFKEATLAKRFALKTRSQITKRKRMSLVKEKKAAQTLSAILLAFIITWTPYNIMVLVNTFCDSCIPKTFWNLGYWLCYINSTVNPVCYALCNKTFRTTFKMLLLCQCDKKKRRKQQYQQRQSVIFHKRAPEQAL

[6] = molecular target: T2, Muscarinic acetylcholine receptor M2; assay: Inhibition of [3H]- oxotremorine-M binding to human Muscarinic acetylcholine receptor M2 expressed in CHO cell membranes
[7] = molecular target: Muscarinic acetylcholine receptor; assay: The binding affinity was measured as inhibition of binding of [3H]- oxotremorine-M to muscarinic acetylcholine receptor in rat cerebral cortical membranes.; type: cell membranes, Membrane
[8] = molecular target: T1, Muscarinic acetylcholine receptor M4; assay: Inhibition of [3H]- oxotremorine-M binding to human Muscarinic acetylcholine receptor M4 in CHO cell membranes
[9] = Ratio of affinity versus antagonist [3H]-QNB divided by affinity versus agonist [3H]OXO-M; type: functional
[10] = molecular target: Muscarinic acetylcholine receptor
[11] = molecular target: Muscarinic acetylcholine receptor; remark: listed apart in the source
Description: Inhibition of [3H]- quinuclidinyl benzilate binding to Muscarinic acetylcholine receptor of rat heart membranes.

[12] = molecular target: T3, Muscarinic acetylcholine receptor M1; assay: Inhibition of [3H]- oxotremorine-M binding to human Muscarinic acetylcholine receptor M1 expressed in CHO cell membranes; type: cell-based
[13] = molecular target: T5, Muscarinic acetylcholine receptor M1 (Homo sapiens) (UniProt P11229); conditions: CHO
T5 sequence (whole entry): T3 sequence (P11229 whole entry)

[14] = molecular target: T4, Muscarinic acetylcholine receptor M3; assay: The binding affinity was measured as inhibition of binding of [3H]- quinuclidinyl benzilate to m3 Muscarinic acetylcholine receptor M3 in membranes of CHO cells; type: cell membranes
Target sequence in this assay (P20309 whole entry): as above

[15] = molecular target: T5, Muscarinic acetylcholine receptor M1 (Homo sapiens); conditions: CHO; at 100 µM
Description: Inhibition of binding of [3H]- quinuclidinyl benzilate to Muscarinic acetylcholine receptor M1 in membranes of CHO cells at 100 uM compound concentration

[16] = molecular target: T4, Muscarinic acetylcholine receptor M3; conditions: CHO; at 100 µM
Target sequence in this assay (P20309 whole entry, looked up): as the sequence (P20309 whole entry) above
Description: Inhibition of binding of [3H]- quinuclidinyl benzilate to Muscarinic acetylcholine receptor M3 in membranes of CHO cells at 100 uM compound concentration

[17] = molecular target: T5, Muscarinic acetylcholine receptor M1 (Homo sapiens); assay: Inhibition of binding of [3H]- quinuclidinyl benzilate to Muscarinic acetylcholine receptor M1 in membranes of CHO cells at 100 uM; type: cell membranes
[18] = molecular target: Muscarinic acetylcholine receptor; assay: The binding affinity was measured as inhibition of binding of [3H]- quinuclidinyl benzilate to Muscarinic acetylcholine receptor; type: protein assay

Row | SMILES | Ki [1] [nM] | Ki [2] [nM] | Ki [3] [nM] | Ki [6] [nM] | Ki [7] [nM] | Ki [8] [nM] | Ratio [9] | Ki [12] [nM] | also measured
1 | O=C(OC1CC2CCCC1N2)c1ccccc1 (stereo not given) | 800 | 190 | 300 | 1700 | 650 | 500 | 1.2 | 120 | Ki [4]: 2800 nM; Ki [5]: 1300 nM; Ki [10]: 440 nM; Ki [11]: 1400 nM
2 | CCCC(=O)OC1CC2CCCC1N2 (stereo not given) | 30000 |  |  |  | 160 |  | 190 |  | 
3 | CN1C2CCCC1C(OC(=O)Nc1ccccc1)C2 (stereo not given) |  |  |  |  | 5100 |  | > 20 |  | 
4 | CCCC(=O)OC1CC2CCCC1N2C (stereo not given) | 34000 |  |  |  | 1200 |  | 28 |  | 
5 | CC(=O)OC1CC2CCCC1N2C (stereo not given) | 280000 |  |  | 4400 | 860 | 900 | 330 | 2300 | inhibition (at 100uM) [13]: 11%; Ki [10]: 92 nM; Ki [11]: 17000 nM
6 | O=C(OC1CC2CCCC1N2)c1ccc([N+](=O)[O-])cc1 (stereo not given) | 2200 | 48 | 360 | 310 | 430 | 450 | 5.1 | 29 | Ki [4]: 780 nM; Ki [14]: 450 nM
7 | C[C@@H]1O[C@H](C[N+](C)(C)C)C[C@H]1O [MUSCARINE] |  | 1400 |  |  |  | 23 |  |  | inhibition [15]: 2%; inhibition [16]: 28%
8 | COc1ccccc1C(=O)OC1CC2CCCC1N2C (stereo not given) | 31000 |  |  |  | 1400 |  | 22 |  | 
9 | CN(C)C(=O)OC1CC2CCCC1N2 (stereo not given) |  |  |  |  | 1700 |  | > 60 |  | 
10 | O=C(Nc1ccccc1)OC1CC2CCCC1N2 (stereo not given) |  |  |  |  | 4300 |  | > 25 |  | 
11 | CN1C2CCCC1C(OC(=O)OCC(Cl)(Cl)Cl)C2 (stereo not given) | 23000 | 42 | 820 | 920 | 720 | 2300 | 31 | 1000 | Ki [4]: 27000 nM; Ki [5]: 6700 nM
12 | O=C(OC1CC2CCCC1N2)C1CCCCC1 (stereo not given) | 25000 | 840 | 3600 | 9000 | 1900 | 2200 | 13 | 970 | Ki [4]: 20000 nM; Ki [5]: 7500 nM
13 | CCC(=O)OC1CC2CCCC1N2C (stereo not given) |  | 960 | 2400 | 1200 | 1500 | 1400 | > 70 | 230 | inhibition [15]: 46%; Ki [5]: 7400 nM
14 | COc1ccc(C(=O)OC2CC3CCCC2N3C)cc1 (stereo not given) |  |  |  |  | 7300 |  | > 15 |  | 
15 | O=C1CCCN1CC#CCN1CCCC1 [OXOTREMORINE] | 58000 | 160 | 660 | 38 | 13 | 1.5 | 4500 | 17 | inhibition [15]: 9%; inhibition [16]: 28%; Ki [10]: 6 nM; Ki [11]: 330 nM
16 | CN1C2CCCC1C(OC(=O)c1ccc([N+](=O)[O-])cc1)C2 (stereo not given) |  |  |  |  | 14000 |  | > 10 |  | 
17 | CN1C2CCCC1C(OC(=O)c1ccccc1)C2 (stereo not given) | 1800 | 410 | 260 | 1300 | 860 | 910 | 2.1 | 270 | Ki [4]: 7700 nM; Ki [5]: 3200 nM; Ki [10]: 790 nM; Ki [11]: 1400 nM
18 | COc1ccc(C(=O)OC2CC3CCCC2N3)cc1 (stereo not given) |  |  |  |  | 1700 |  | > 60 |  | 
19 | CCC(=O)OC1CC2CCCC1N2 (stereo not given) | 32000 | 660 | 3100 | 190 | 30 | 85 | 1100 | 190 | Ki [5]: 11400 nM; inhibition [17]: 36%
20 | CN1C2CCCC1C(OS(C)(=O)=O)C2 (stereo not given) |  |  |  |  | 2200 |  | > 100 |  | 
21 | CC(=O)OC1CC2CCCC1N2 (stereo not given) |  |  |  | 7 | 2 | 4 | 11000 | 4.6 | Ki [18]: 22000 nM; Ki [10]: 0.95 nM; Ki [11]: 400 nM
22 | COc1ccccc1C(=O)OC1CC2CCCC1N2 (stereo not given) | 53000 |  |  |  | 2800 |  | 19 |  | 
23 | CN1C2CCCC1C(OC(=O)C1CCCCC1)C2 (stereo not given) | 8500 | 300 | 730 | 1600 | 860 | 700 | 13 | 450 | Ki [4]: 7000 nM; Ki [5]: 3000 nM
24 | CN(C)C(=O)OC1CC2CCCC1N2C (stereo not given) |  |  |  |  |  |  | > 60 |  | 
25 | CS(=O)(=O)OC1CC2CCCC1N2 (stereo not given) |  |  |  |  | 2700 |  | > 100 |  | 
